{
  "source": "patent US9642925B2",
  "about": "“Magnetic nanoparticle formulations, methods for making such formulations, and methods for their use” (Sanford Research/USD, priority 2010, dated 2017)",
  "key": {"Bcl-xL": {"tested_on": "Bcl-xL", "test": "IHC of Bcl-xL expression in pancreatic tumor xenografts", "type": "in vivo, athymic nude mice", "settings": "intra-tumoral at day 20", "protocol": "(§1) FIG. 15. The effect of MNP-curcumin formulation on the expression of Bcl-xL and MCL-1 oncogenes in pancreatic tumor xenografts. Pancreatic tumor xenografts were generated in athymic nude mice by subcutaneous (sc) injection of HPAFII human pancreatic cancer cells. […] The presence of MNPs (iron) in tumors was determined by Prussian Blue staining. Original Magnifications 200×.\n(§2) We then tested to effect of MNP-curcumin formulation on the expression of Bcl-xL and MCL-1 oncogenes in pancreatic tumor xenografts. Pancreatic tumor xenografts were generated in athymic nude mice by subcutaneous (sc) injection of HPAFII human pancreatic cancer cells."}, "[1]": {"tested_on": "MDA-MB-231 breast cancer cells", "test": "In vitro cytotoxicity (MTT assay), MDA-MB-231", "type": "cell-based", "settings": "Homo sapiens, 48 h; MDA-MB-231, 2 days; read-out: IC50 (50% cell growth inhibitory concentration)", "protocol": "(§3) In vitro cytotoxicity was assessed using a standard 3-(4,5-dimethylthiazol-2-yl)-2,5-diphenyltetrazolium bromide (MTT) based colorimetric assay (CellTiter 96 AQeous, Promega, Madison, Wis., USA). Ovarian (A2780CP), breast (MDA-MB-231), and prostate (PC3) cancer cells were used for this experiment. Cells (5000 cells/well in 100 μl media) were cultured in RPMI-1640 or DMEM medium containing 10% FBS and 1% penicillin-streptomycin in 96-well plates and allowed to attach overnight. The media was replaced with fresh media containing different concentrations (2.5-40 μM) of CUR and CUR containing MNPs (F127250-CUR). Equivalent amounts of DMSO or F127250 MNPs without drug in PBS were used as control. These plates were incubated at 37° C. for 2 days. After day 2, the media was replaced with 100 μl fresh media and the MTT reagent (25 μl/well) was added to each well and plates were incubated for 3 hrs at 37° C. in an incubator. The color intensity was measured at 492 nm using a microplate reader (BioMate 3 UV-Vis Spectrophotometer, Thermo Electron Corporation, Hudson, N.H., USA). The anti-proliferation potential of CUR and F127250-CUR treatments was calculated as a percentage of cell growth with respect to the DMSO and F127250 formulation in PBS controls. Standard deviations were obtained from 6 replicates."}, "MCL-1": {"tested_on": "MCL-1", "test": "IHC of MCL-1 expression in pancreatic tumor xenografts", "type": "in vivo, athymic nude mice", "settings": "intra-tumoral at day 20", "protocol": "as §1, §2"}, "[2]": {"tested_on": "PC3 prostate cancer cells", "test": "In vitro cytotoxicity (MTT assay), PC3", "type": "cell-based", "settings": "48 h; PC3, 2 days; read-out: IC50 (50% cell growth inhibitory concentration)", "protocol": "as §3"}, "PARP": {"tested_on": "PARP", "test": "Western blot for PARP cleavage in PC3 cells", "type": "cell-based", "settings": "20 μM", "protocol": "The immunoblot analyses were performed to determine anti-cancer effects of our formulation at the molecular level. For these experiments, cancer cells were collected after 2 days of treatment with 10 μM and 20 μM CUR and 10 μM and 20 μM of F127250-CUR and processed for protein extraction and Western blotting using standard procedures. The cell lysates were separated by gel electrophoresis on polyacrylamide gels containing sodium dodecyl sulfate and then transferred to PVDF membranes. The membranes were blocked with Tris-buffered saline (TBS) containing 5% (w/v) skimmed milk. After washing thrice with Tween 20, the membranes were incubated overnight with primary antibody specific to Bcl-xL or PARP at 4° C. After washing, the membranes were incubated for 1 hr with secondary antibody (Promega, Madison Wis., USA). Protein bands were visualized using the Lumi-Light Detection Kit (Roche, Nutley, N.J., USA) and detected with a BioRad Gel Doc (BioRad, Hercules, Calif., USA)."}, "[3]": {"tested_on": "A2780CP ovarian cancer cells", "test": "In vitro cytotoxicity (MTT assay), A2780CP", "type": "cell-based", "settings": "A2780C/P, 48 h, 2 days, read-out: IC50 (50% cell growth inhibitory concentration)", "protocol": "as §3"}, "PC3 cancer cells": {"tested_on": "PC3 cancer cells", "test": "Ultrastructural changes in cancer cells by TEM", "type": "cell-based", "settings": "20 μM", "protocol": "The uptake (internalization) pattern of nanoparticles was monitored by transmission electron microscopy (TEM) to further validate the cellular uptake capability of magnetic nanoparticles in cancer cells which was visually observed. For this experiment, aforementioned cells (1×10^7 cells per 150 mm plate) were incubated with 1 mg of particles in 20 ml media for 6 hrs. The treated cells were centrifuged and fixed with standard formaldehyde (4%)-glutaraldehyde (1%) fixative solution followed by OsO4 fixative solution. Next, cells were dehydrated in a graded series of acetone and embedded in Spurr resin. These cell-containing resin blocks were sectioned using an ultramicrotome and ultrathin sections (70-90 nm thickness) were transferred onto TEM grid (grid size: 97 μm) (Ted Pella Inc., Redding, Calif., USA). The grids were processed with uranyl acetate and lead acetate solutions to visualize cellular ultra structures.\nThe variation of ultrastructural changes in the cancer cells upon exposure to control (DMSO and F127250 formulation), 20 μM CUR or 20 μM F127250-CUR were observed by transmission electron microscopy (TEM) analysis."}},
  "data": [
    {"smiles": "COc1cc(/C=C/C(=O)CC(=O)/C=C/c2ccc(O)c(OC)c2)ccc1O", "note": "[curcumin, (E,E)-1,7-bis(4-Hydroxy-3-methoxyphenyl)-1,6-heptadiene-3,5-dione]", "values": [
      {"measurement": "expression of Bcl-xL oncogene in tumor xenografts", "setting": "Bcl-xL", "result": "effectively inhibited the expression"},
      {"measurement": "IC50", "setting": "[1]", "result": 18.8, "unit": "µM"},
      {"measurement": "expression of MCL-1 oncogene in tumor xenografts", "setting": "MCL-1", "result": "effectively inhibited the expression"},
      {"measurement": "IC50", "setting": "[2]", "result": 10.6, "unit": "µM"},
      {"measurement": "PARP cleavage", "setting": "PARP", "result": "considerable cleavage"},
      {"measurement": "IC50", "setting": "[3]", "result": 12.6, "unit": "µM"},
      {"measurement": "ultrastructural changes (vacuole formation)", "setting": "PC3 cancer cells", "result": "formation of endosomal-lysosomal-vacules"}
    ]}
  ]
}
